The structures appear in SMILES notation.

T1 sequence (P28482 8-360): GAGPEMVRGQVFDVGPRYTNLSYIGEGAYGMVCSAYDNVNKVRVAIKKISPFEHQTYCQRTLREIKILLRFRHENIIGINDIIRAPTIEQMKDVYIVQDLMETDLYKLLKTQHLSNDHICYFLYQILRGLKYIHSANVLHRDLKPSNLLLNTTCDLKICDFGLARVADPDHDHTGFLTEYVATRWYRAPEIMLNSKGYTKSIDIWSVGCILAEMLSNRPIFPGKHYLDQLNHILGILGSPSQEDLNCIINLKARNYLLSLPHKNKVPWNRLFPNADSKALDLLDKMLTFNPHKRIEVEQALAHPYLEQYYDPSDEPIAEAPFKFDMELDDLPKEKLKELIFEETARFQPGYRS

The first experiment addresses T1, human ERK-2 (Mitogen Activated Kinase 1) (Homo sapiens, UniProt P28482).
T1 construct: N-terminal 6-His fusion protein in E. coli and corresponding to aa 8-360; 6-His (N); made in house; host or cells: E. coli
The experiment can be described thus: ERK-2 Enzymatic Assay. The class given is biochemical. The note with it: TABLE I; 5nM ERK-2 enzyme, 25µM ATP, S/T17 peptide substrate; single assay or mean of multiple assays. As to the method: Compounds were tested in an enzymatic assay using human ERK-2 (Mitogen Activated Kinase 1), recombinantly expressed as an N-terminal 6-His fusion protein in E. coli and corresponding to aa 8-360. The substrate used was the fluorescent Omnia peptide S/T17 (Invitrogen of Carlsbad, CA; Cat. KNZ1171C). Test compounds were diluted in DMSO in 3-fold serial dilutions at 100x final concentrations. […] The assay was run at ambient temperature in a white 384-well polypropylene plate (Nunc, Inc of Naperville, IL; Cat. 267462) collecting data every 50 seconds for approximately 30 minutes on an Envision plate reader (PerkinElmer, Inc. of Waltham, MA); Excitation 340 nm/Emission 495 nm. The data collected from each well was fit to a straight line and the resulting rates were used to calculate percent of control. Percent of control was plotted against compound concentration and IC50 values were determined using a four-parameter fit. Representative data is in TABLE I and TABLE II. The reported IC50 may be from a single assay or the mean of multiple assays.
Turning to `O=C(N[C@H](c1ccc(F)c(Cl)c1)[C@]1(F)CCNC1)c1ccc2cnc(NC3CCOCC3)nc2c1` [Compound I-38], 65.4 nM corresponded to half-maximal inhibition (IC50).
Still for that read-out and setting: the result for `Cn1cc([C@@H](NC(=O)c2ccc3cnc(N[C@H]4CCO[C@H](CO)C4)nc3c2)c2ccc(Cl)c(F)c2)cn1` [Compound I-42, 2-((2S,4S)-2-hydroxymethyl-tetrahydro-pyran-4-ylamino)-quinazoline-7-carboxylic acid [(S)-(4-chloro-3-fluoro-phenyl)-(1-methyl-1H-pyrazol-4-yl)-methyl]-amide] reads 7.2 nM.
For the compound `COc1ccc([C@H](NC(=O)c2ccc3cnc(NC4CCOCC4)nc3c2)c2cnn(C)c2)cc1Cl` [Compound I-44, 2-(tetrahydro-pyran-4-ylamino)-quinazoline-7-carboxylic acid [(S)-(3-chloro-4-methoxy-phenyl)-(1-methyl-1H-pyrazol-4-yl)-methyl]-amide], the IC50 worked out at 1 nM.
Still for that read-out and setting: the result for `COc1ccc([C@H](NC(=O)c2ccc3cnc(N[C@H]4CCO[C@H](CO)C4)nc3c2)c2cnn(C)c2)cc1F` [Compound I-46, N-((S)-(3-fluoro-4-methoxyphenyl)(1-methyl-1H-pyrazol-4-yl)methyl)-2-((2S,4S)-2-(hydroxymethyl)tetrahydro-2H-pyran-4-ylamino)quinazoline-7-carboxamide] reads 4.2 nM; that for `COc1ccc([C@@H](NC(=O)c2ccc3cnc(NC4CCOCC4)nc3c2)c2cnn(C)c2)cc1C#N` [Compound I-49, (R)-N-((3-cyano-4-methoxyphenyl)(1-methyl-1H-pyrazol-4-yl)methyl)-2-(tetrahydro-2H-pyran-4-ylamino)quinazoline-7-carboxamide], 141 nM; that for `COc1ccc([C@H](NC(=O)c2cc(F)c3cnc(NC4CCOCC4)nc3c2)c2cnn(C)n2)cc1F` [Compound I-51, (S)-5-Fluoro-N-((3-fluoro-4-methoxyphenyl)(2-methyl-2H-1,2,3-triazol-4-yl)methyl)-2-(tetrahydro-2H-pyran-4-ylamino)quinazoline-7-carboxamide], 2.8 nM.
The same measure, in the same setting: the result for `COc1ccc([C@H](NC(=O)c2cc(F)c3cnc(N[C@H]4CCOC[C@H]4F)nc3c2)c2cnn(C)c2)cc1F` [Compound I-52, 5-fluoro-N-((S)-(3-fluoro-4-methoxyphenyl)(1-methyl-1H-pyrazol-4-yl)methyl)-2-((3S,4S)-3-fluorotetrahydro-2H-pyran-4-ylamino)quinazoline-7-carboxamide] reads 2.6 nM.
`COc1ccc(C(NC(=O)c2cc(F)c3cnc(NC4CCOCC4)nc3c2)c2cnn(C)n2)cc1F` (stereo not shown) [Compound I-53, 5-Fluoro-2-(tetrahydro-pyran-4-ylamino)-quinazoline-7-carboxylic acid [(3-fluoro-4-methoxy-phenyl)-(2-methyl-2H-[1,2,3]triazol-4-yl)-methyl]-amide] came in with a half-maximal inhibitory concentration (IC50) of 6.8 nM.
As to `COc1ccc([C@@H](NC(=O)c2cc(F)c3cnc(NC4CCOCC4)nc3c2)c2cnn(C)n2)cc1F` [Compound I-54, 5-Fluoro-2-(tetrahydro-pyran-4-ylamino)-quinazoline-7-carboxylic acid [(R)-(3-fluoro-4-methoxy-phenyl)-(2-methyl-2H-[1,2,3]triazol-4-yl)-methyl]-amide], half-maximal inhibition (IC50) was put at 31 nM. Compared with the last compound, the IC50 is about 4.6-fold higher.
The same measure, in the same setting: the result for `Cn1cc([C@@H](NC(=O)c2ccc3cnc(NC4CCOCC4)nc3c2)c2ccc(F)c(Cl)c2)cn1` [Compound I-55, 2-(Tetrahydro-pyran-4-ylamino)-quinazoline-7-carboxylic acid [(S)-(3-chloro-4-fluoro-phenyl)-(1-methyl-1H-pyrazol-4-yl)-methyl]-amide] reads 2.7 nM.
`COc1ccc([C@H](NC(=O)c2ccc3cnc(NC4CCOCC4)nc3c2)c2cnn(C)c2)cc1C#N` [Compound I-56, 2-(Tetrahydro-pyran-4-ylamino)-quinazoline-7-carboxylic acid [(3-cyano-4-methoxy-phenyl)-(1-methyl-1H-pyrazol-4-yl)-methyl]-amide] registered an IC50 of 3.5 nM.
The same measure, in the same setting: then `COc1ccc([C@H](NC(=O)c2ccc3cnc(N[C@H]4CCO[C@H](COC(C)=O)C4)nc3c2)c2cnn(C)c2)cc1F` [Compound I-57, Acetic acid (2S,4S)-4-(7-{[(S)-(3-fluoro-4-methoxy-phenyl)-(1-methyl-1H-pyrazol-4-yl)-methyl]-carbamoyl}-quinazolin-2-ylamino)-tetrahydro-pyran-2-ylmethyl ester], with 24 nM; and `COCCNc1ncc2c(F)cc(C(=O)N[C@@H](c3ccc(OC)c(F)c3)c3cnn(C)c3)cc2n1` [Compound I-58, 5-Fluoro-2-(2-methoxy-ethylamino)-quinazoline-7-carboxylic acid [(S)-(3-fluoro-4-methoxy-phenyl)-(1-methyl-1H-pyrazol-4-yl)-methyl]-amide], with 20 nM.
Consider `COc1ccc([C@H](NC(=O)c2cc(F)c3cnc(NCCCF)nc3c2)c2cnn(C)c2)cc1F` [Compound I-59, 5-Fluoro-2-(3-fluoro-propylamino)-quinazoline-7-carboxylic acid [(S)-(3-fluoro-4-methoxy-phenyl)-(1-methyl-1H-pyrazol-4-yl)-methyl]-amide], for which the IC50 was 15 nM.
Turning to `COc1ccc([C@H](NC(=O)c2cc(F)c3cnc(NCC4COC4)nc3c2)c2cnn(C)c2)cc1F` [Compound I-63, 5-Fluoro-2-[(oxetan-3-ylmethyl)-amino]-quinazoline-7-carboxylic acid [(S)-(3-fluoro-4-methoxy-phenyl)-(1-methyl-1H-pyrazol-4-yl)-methyl]-amide], the midpoint of inhibition, the IC50, lay at 4 nM.
The same measure, in the same setting: then `Cn1cc([C@@H](NC(=O)c2cc(F)c3cnc(NC4CCOCC4)nc3c2)c2ccc(C#N)c(Cl)c2)cn1` [Compound I-65, 5-Fluoro-2-(tetrahydro-pyran-4-ylamino)-quinazoline-7-carboxylic acid [(S)-(3-chloro-4-cyano-phenyl)-(1-methyl-1H-pyrazol-4-yl)-methyl]-amide], with 0.6 nM; and `COc1ccc([C@H](NC(=O)c2cc(F)c3cnc(NC4CCOCC4)nc3c2)c2cnn(C)c2)cc1Cl` [Compound I-66, 5-Fluoro-2-(tetrahydro-pyran-4-ylamino)-quinazoline-7-carboxylic acid [(S)-(3-chloro-4-methoxy-phenyl)-(1-methyl-1H-pyrazol-4-yl)-methyl]-amide], with 0.6 nM.
Still for that read-out and setting: the result for `Cn1cc([C@@H](NC(=O)c2cc(F)c3cnc(NC4CCOCC4)nc3c2)c2cccc(F)c2)cn1` [Compound I-68] reads 1.3 nM; that for `COc1ccc([C@H](NC(=O)c2cc(F)c3cnc(N[C@@H]4CCOC[C@@H]4F)nc3c2)c2cnn(C)c2)cc1F` [Compound I-70], 4 nM.

The same experiment, now with this note: TABLE II; 5nM ERK-2 enzyme, 25µM ATP, S/T17 peptide substrate; single assay or mean of multiple assays.
The compound `COc1ccc([C@H](NC(=O)c2ccc3cnc(NC4CS(=O)(=O)C4)nc3c2)c2cnn(C)c2)cc1F` [II-3] came in with an IC50 of 52.8 nM. In other words, the double-digit nanomolar range.
`COc1ccc([C@@H](NC(=O)c2cc(F)c3cnc(NC4CCOCC4)nc3c2)c2cnn(C)c2)cc1F` [II-4]: the IC50 worked out at 15.7 nM. Compared with the last compound, the IC50 is about 3.4-fold lower.
`COc1ccc([C@H](NC(=O)c2ccc3cnc(N[C@H]4C[C@@H](O)C4)nc3c2)c2cnn(C)c2)cc1F` [II-8] gave an IC50 of 4.2 nM.
On the same count and under the same terms, the result for `COc1ccc([C@H](NC(=O)c2ccc3cnc(N[C@H]4C[C@H](O)C4)nc3c2)c2cnn(C)c2)cc1F` [II-9] reads 3.8 nM; that for `COc1ccc([C@H](NC(=O)c2ccc3cnc(NC4CC(OC)C4)nc3c2)c2cnn(C)c2)cc1F` (stereo partly shown) [II-10], 13.8 nM; that for `COc1ccc([C@H](NC(=O)c2cc(F)c3cnc(NCCC#N)nc3c2)c2cnn(C)c2)cc1F` [II-11], 13.9 nM.
The same measure, in the same setting: the result for `Cn1cc([C@@H](NC(=O)c2cc(F)c3cnc(NC4CCOCC4)nc3c2)c2cccc(F)c2)cn1` [II-12] reads 1.2 nM; that for `COc1ccc([C@H](NC(=O)c2cc(F)c3cnc(NC4CCOCC4)nc3c2)c2cnn(C)c2)nc1` [II-14], 153 nM; that for `COc1ccc([C@H](NC(=O)c2cc(F)c3cnc(N[C@@H]4CCOC[C@@H]4F)nc3c2)c2cnn(C)c2)cc1F` [II-15], 4.3 nM.
`COc1ccc([C@H](NC(=O)c2ccc3cnc(Nc4ccnn4C)nc3c2)c2cnn(C)c2)cc1F` [II-16] came in with an IC50 of 2.1 nM.
Same read-out and setting: the result for `COc1ccc([C@H](NC(=O)c2ccc3cnc(Nc4ccnc(C)c4)nc3c2)c2cnn(C)c2)cc1F` [II-17] reads 4.8 nM; that for `COc1ccc([C@H](NC(=O)c2cc(F)c3cnc(Nc4cn(C)nc4C)nc3c2)c2cnn(C)c2)cc1F` [II-19], 6.8 nM.
The same measure, in the same setting: the result for `COc1ccc([C@H](NC(=O)c2cc(F)c3cnc(N[C@@H](C)CO)nc3c2)c2cnn(C)c2)cc1F` [II-21] reads 2.3 nM; that for `COc1ccc([C@H](NC(=O)c2cc(F)c3cnc(NC4CCOCC4)nc3c2)c2cnn(C)c2)cc1` [II-22], 7 nM.
The same measure, in the same setting: the result for `COc1ccc([C@H](NC(=O)c2cc(F)c3cnc(Nc4ccnn4C)nc3c2)c2cnn(C)c2)cc1F` [II-23] reads 10.8 nM.
Compound `Cc1cc(Nc2ncc3ccc(C(=O)N[C@@H](c4ccc(Cl)c(F)c4)c4cnn(C)c4)cc3n2)n(C)n1` [II-24] came in with an IC50 of 14.6 nM.
Still for that read-out and setting: the result for `C[C@@H](CO)Nc1ncc2c(F)cc(C(=O)N[C@@H](c3cccc(F)c3)c3cnn(C)c3)cc2n1` [II-26] reads 5.6 nM.
`COc1ccc([C@H](NC(=O)c2ccc3cnc(Nc4cn(C)nc4C)nc3c2)c2cnn(C)c2)cc1F` [II-27] registered an IC50 of 960 nM.

As usually defined, the IC50 is the concentration needed to halve the response being measured. Higher therefore signals lower potency.

These data come from patent EP2739618B1, “QUINAZOLINE COMPOUNDS AS SERINE/THREONINE KINASE INHIBITORS” (Array Biopharma, Inc., priority 2011, dated 2013).
